Test results taken from the NIST ThermoML archive (doi:10.1016/j.tca.2006.01.013).
Numbers after ± are expanded uncertainties.

Experiment: xn = mol fraction of the nth substance listed
Settings: 101 kPa, Liquid, Vibrating tube method

NCCN [ethane-1,2-diamine] + O
mass density [kg/m3]
Settings | 323.15 K | 328.15 K | 333.15 K | 338.15 K | 343.15 K | 348.15 K | 353.15 K
x2 = 0.0401 | 872.83 ± 0.44 | 868.06 ± 0.44 | 863.25 ± 0.44 | 858.43 ± 0.43 | 853.59 ± 0.43 | 848.71 ± 0.43 | 843.82 ± 0.43
x2 = 0.0797 | 876.97 ± 0.42 | 872.2 ± 0.42 | 867.42 ± 0.42 | 862.6 ± 0.42 | 857.77 ± 0.42 | 852.91 ± 0.42 | 848.01 ± 0.41
x2 = 0.1199 | 881.48 ± 0.41 | 876.73 ± 0.41 | 871.95 ± 0.4 | 867.15 ± 0.4 | 862.33 ± 0.4 | 857.47 ± 0.4 | 852.59 ± 0.4
x2 = 0.1598 | 886.3 ± 0.39 | 881.56 ± 0.39 | 876.8 ± 0.39 | 872.01 ± 0.39 | 867.2 ± 0.39 | 862.35 ± 0.39 | 857.48 ± 0.38
x2 = 0.2003 | 891.39 ± 0.38 | 886.66 ± 0.37 | 881.91 ± 0.37 | 877.13 ± 0.37 | 872.32 ± 0.37 | 867.48 ± 0.37 | 862.61 ± 0.37
x2 = 0.25 | 897.71 ± 0.36 | 892.99 ± 0.36 | 888.25 ± 0.35 | 883.48 ± 0.35 | 878.68 ± 0.35 | 873.85 ± 0.35 | 868.98 ± 0.35
x2 = 0.2999 | 904.5 ± 0.34 | 899.79 ± 0.34 | 895.05 ± 0.34 | 890.29 ± 0.34 | 885.49 ± 0.33 | 880.67 ± 0.33 | 875.81 ± 0.33
x2 = 0.3497 | 911.88 ± 0.32 | 907.18 ± 0.32 | 902.45 ± 0.32 | 897.69 ± 0.32 | 892.89 ± 0.32 | 888.07 ± 0.32 | 883.2 ± 0.32
x2 = 0.3998 | 919.54 ± 0.3 | 914.84 ± 0.3 | 910.11 ± 0.3 | 905.35 ± 0.3 | 900.55 ± 0.3 | 895.73 ± 0.3 | 890.86 ± 0.3
x2 = 0.4504 | 927.55 ± 0.28 | 922.85 ± 0.28 | 918.12 ± 0.28 | 913.36 ± 0.28 | 908.57 ± 0.28 | 903.74 ± 0.28 | 898.87 ± 0.28
x2 = 0.5001 | 935.8 ± 0.27 | 931.11 ± 0.27 | 926.38 ± 0.27 | 921.62 ± 0.27 | 916.83 ± 0.27 | 912 ± 0.27 | 907.14 ± 0.26
x2 = 0.5499 | 944.38 ± 0.24 | 939.7 ± 0.24 | 934.98 ± 0.24 | 930.23 ± 0.24 | 925.44 ± 0.24 | 920.62 ± 0.24 | 915.76 ± 0.24
x2 = 0.5998 | 952.77 ± 0.22 | 948.12 ± 0.22 | 943.43 ± 0.22 | 938.7 ± 0.22 | 933.95 ± 0.22 | 929.15 ± 0.22 | 924.32 ± 0.22
x2 = 0.6499 | 960.7 ± 0.19 | 956.11 ± 0.19 | 951.49 ± 0.2 | 946.83 ± 0.2 | 942.13 ± 0.2 | 937.39 ± 0.2 | 932.61 ± 0.2
x2 = 0.7004 | 967.91 ± 0.17 | 963.45 ± 0.17 | 958.96 ± 0.17 | 954.42 ± 0.17 | 949.83 ± 0.17 | 945.19 ± 0.17 | 940.53 ± 0.17
x2 = 0.7499 | 973.34 ± 0.14 | 969.1 ± 0.15 | 964.81 ± 0.15 | 960.46 ± 0.15 | 956.08 ± 0.15 | 951.64 ± 0.15 | 947.14 ± 0.15
x2 = 0.8 | 976.78 ± 0.12 | 972.86 ± 0.12 | 968.88 ± 0.12 | 964.84 ± 0.12 | 960.73 ± 0.13 | 956.56 ± 0.13 | 952.33 ± 0.13
x2 = 0.84 | 978.35 ± 0.1 | 974.76 ± 0.1 | 971.09 ± 0.11 | 967.34 ± 0.11 | 963.52 ± 0.11 | 959.62 ± 0.11 | 955.65 ± 0.11
x2 = 0.88 | 979.3 ± 0.09 | 976.06 ± 0.09 | 972.74 ± 0.09 | 969.32 ± 0.09 | 965.81 ± 0.09 | 962.21 ± 0.09 | 958.53 ± 0.1
x2 = 0.9193 | 980.41 ± 0.07 | 977.53 ± 0.07 | 974.54 ± 0.08 | 971.43 ± 0.08 | 968.22 ± 0.08 | 964.91 ± 0.08 | 961.5 ± 0.08
x2 = 0.9599 | 982.91 ± 0.06 | 980.35 ± 0.06 | 977.65 ± 0.06 | 974.83 ± 0.07 | 971.88 ± 0.07 | 968.82 ± 0.07 | 965.65 ± 0.07
